From publication PMC4585737, “Lipoproteins/peptides are sepsis-inducing toxins from bacteria that can be neutralized by synthetic anti-endotoxin peptides” (Scientific Reports, 2015)
“Also recorded” adds a separate entry of the source.

Columns and labels:
[1] = tested on: Balb/C mice; experiment: Lethal toxemia in galactosamine-sensitized mice; format: in vivo, mouse; conditions: 200 μg/mouse peptide i.p. after 4 μg FSL-1 + D-galactosamine 18 mg/mouse; n = 6; up to 4 days; Kaplan-Meier, p < 0.05
Method: (§1) Seven-week-old female SPF-free Balb/C mice of 20 g of body weight, approximately, were purchased from Harlan Spain (Harlan Interfauna Iberica S.A., Barcelona, Spain) and randomly distributed in experimental groups (at least 4 animals per group except for the determination of lethal dose (n = 3)). Sample size was calculated based on previous results with the same animal model. Animals were housed in individually ventilated cages (5 mice per cage) bedded with hardwood bedding. Mice were provided ad libitum access to feed and water and lighting was adjusted to a 14-hour light/10-hour dark cycle. During the experiments, the condition of the animals was monitored daily every 4 hours and animals displaying persistent motor ataxia and hunched posture were euthanized.
To determine the lethal dose of FSL-1 in mice, the method of Galanos and collaborators[48] was followed with some modifications. Briefly, animals were intraperitoneally inoculated with increasing amounts of FSL-1 (50 ng, 500 ng, 5 μg and 50 μg) supplemented with 18 mg of D-galactosamine in a final volume of 200 μl of pyrogen-free saline. Galactosamine is known to sensitize mice to pro-inflammatory compounds such as LPS, thus making it possible to use lower amounts of the stimulatory drug[46]. The ability of Aspidasept® to protect mice from FSL-1 dependent lethal toxemia was assessed by co-administering FSL-1 (4 μg/mouse) with D-galactosamine (18 mg/mouse) intraperitoneally.
Results were globally analyzed by means of a Kaplan-Meier survival analysis (SPSS 15.0). When the survival plots were parallel, the data were compared by the log-rank test, whereas the Breslow-Gehan-Wilcoxon test was applied when the plots intersected.

[2] = tested on: FSL-1; experiment: Isothermal titration calorimetry of peptide into FSL-1; format: binding; conditions: LP 0.05 mM, peptide 1 mM titrated in 3 μl portions every 5 min, 37 °C
Method: Microcalorimetric measurements of peptide binding to selected LP, i.e., Pam3CSK4 and FSL-1 were performed on a MCS isothermal titration calorimeter (Microcal, Freiburg, Germany) at 37 °C, as previously described. The LP containing solutions (0.05 mM, prepared as described above) were dispensed into the microcalorimetric cell (volume 1.5 ml), and the peptide solutions (1 mM) were loaded into the syringe compartment (volume 0.1 ml). After temperature equilibration, the peptide was titrated in 3 μl aliquots every 5 min into the LP-containing cell under constant stirring and the heat of interaction after each injection measured by the MCS instrument was plotted versus time.

[3] = tested on: Balb/C mice; experiment: Serum cytokine response in mice after intraperitoneal inoculation; format: in vivo, mouse; conditions: 400 μg peptide i.p. immediately after 40 μg FSL-1, different site, n = 5
Method: as §1
To study if FSL-1 had pro-inflammatory cytokine-inducing activity, animals were intraperitoneally inoculated with 40 μg of FSL-1 resuspended in 200 μl of pyrogen-free saline. Blood samples were taken both at 1.5 h or 4 h after FSL-1 challenge to measure TNFα and IL-6 levels. For this purpose, mice were anesthetised, a blood sample was obtained by the retroorbital plexus and serum cytokine levels were measured using Quantikine Immunoassays kits (R&D systems, Minneapolis, USA) following manufacturer’s instructions. Differences between groups were statistically analyzed using the Mann-Whitney U test.
To evaluate the ability of Aspidasept® to neutralize the FSL-1 induced pro-inflammatory cytokines, a group of animals received by the intraperitoneal route first 40 μg of FSL-1 and then 400 μg of the drug resuspended in 100 μl of pyrogen-free saline. This second injection was administered immediately after FSL-1 challenge at a different site of the peritoneum. TNFα and IL-6 levels were measured (see above) at 1.5 h or 4 h after challenge, respectively, coinciding with the peak of cytokine secretion, as determined in preliminary experiments.

[4] = tested on: human mononuclear cells; experiment: TNFα production in human mononuclear cells (MNC) stimulated by LP, LTA or PGN, and its inhibition by SALP; format: cell-based
Method: The stimulation of MNC was performed as described previously. Briefly, MNC were isolated from heparinized blood of healthy donors by the Hypaque-Ficoll density gradient method. The cell number was equilibrated at 5 × 10^6 cells/ml RPMI 1640 containing 2 mM L-glutamine, 100 U/ml penicillin and 100 μg/ml streptomycin. For stimulation, 200 μl/well MNC were transferred into 96-well culture plates. The stimuli were serially diluted in RPMI 1640 and added to the cultures at 20 μl per well. The cultures were incubated for 4 h at 37 °C under 5% CO2. Cell-free supernatants were collected after centrifugation of the culture plates for 10 min at 400 × g and stored at −20 °C until the determination of the cytokine content. Immunological determination of TNFα in the cell supernatant was performed in a sandwich-ELISA as described earlier (OptEIA; BD, Heidelberg, Germany). TNFα was determined and measured following manufacturer’s instructions and results are the average of two assays.
LP preparations were pre-warmed for 30 min at 37 °C, and added to the cultures at 20 μl per well. In inhibition experiments, different SALP were added directly after LPS/LP/LTA administration.
Since the data of the stimulation of human MNC by the bacterial and synthetic LP was taken over a time period of more than 6 years, the TNFα production lead to considerable variations due to different batches of LP and of Pep19-2.5, and in particular due to variations resulting from blood samples of different donors. Because the main emphasis laid here is the efficiency of the peptide to inhibit the cytokine production, most figures describe the inhibition efficieny of the peptide in %, by presenting the means ± SEM of at least 3 independent experiments. The absolute values of the cytokine production, where of note, is given separately in the text.

GCKKYRRFRWKFKGKFWFWG [Aspidasept®, synthetic anti-LPS peptide (SALP), 20′mer, anti-septic therapeutic drug candidate]
survival of mice challenged with FSL-1 [1]: significant survival benefit | ITC: FSL-1:peptide interaction [2]: exothermic reaction with saturation kinetics; also recorded: considerable reaction with saturation characteristics | inhibition of FSL-1 induced TNFα stimulation in mice ([3]; 1.5 h, p < 0.01): totally inhibited | reduction of FSL-1 induced IL-6 levels in mice ([3]; 4 h): slight reduction | inhibition of TNFα induction by LP, LTA and PGN ([4]; 10:1 excess weight ratio of the peptide): takes place in most cases | cytokine expression induced by LP, LTA and PGN in presence of peptide ([4]; 100:1 weight ratio of the peptide): no longer any detectable cytokine expression | reduction of FSL-1-induced TNFα secretion ([4]; stimulus FSL-1 100 and 10 ng/ml, 10-fold (10:1 weight%) excess of peptide): considerable reduction; also recorded: good degree of inhibition | reduction of FSL-1-induced TNFα secretion ([4]; stimulus FSL-1, 100:1 excess of peptide): nearly completely abolished | inhibition of LP dependent TNFα production ([4]; stimulus LP OspA and OspC, 10000 and 1000 ng/ml, peptide:LP ratio 10:1): inhibited | LP dependent TNFα production in presence of peptide ([4]; stimulus LP OspA and OspC, peptide:LP 100:1 concentration ratio, data not shown): undetectable levels | reduction of LTA-dependent TNFα response ([4]; stimulus LTA from S. aureus SA113Δlgt, 10000 and 1000 ng/ml, 10-fold excess of peptide): effectively reduced | inhibition of pro-inflammatory activity of MALP-2 ([4]; stimulus MALP-2, 100:1 weight% excess of the peptide, data not shown): nearly complete inhibition | inhibition of PGN-induced TNFα response ([4]; stimulus PGN from S. aureus SA113Δlgt, 10000 and 1000 ng/ml, 10-fold excess of peptide): totally inhibited | inhibition of Pam3CSK4-induced cytokine (TNFα) production ([4]; stimulus Pam3CSK4 1000, 100, 10 ng/ml, [LP]:[Pep] up to 1:100 weight%): only a minor inhibitory effect; also recorded: no significant influence; also recorded: no or only a small inhibition | inhibition of LTA-induced TNFα ([4]; stimulus commercial LTA from B. subtilis, 10:1 weight% excess of peptide): complete inhibition | inhibition of LTA-induced cytokine ([4]; stimulus commercial LTA from S. aureus, data not shown): inhibited
